Active and inactive are the calls of the source.
Tests used:
[1] = A cytotoxicity screen of small molecule inhibitors of the PhoP region in Salmonella typhi identified in the primary screen. [Related pubchem assays: 1850, 1864, 1985 ]; assay type: functional
[2] = viability loss of HPDE-C7K cells – cell-based, fluorescence, HTS, primary screen (AID 431); assay type: functional; conditions: Homo sapiens
[3] = HPDE-C7 pancreatic duct cell viability loss – fluorescence, HTS (AID 430); assay type: functional, cell-based; conditions: Homo sapiens
[4] = alpha-synuclein stem-loop luciferase translation blockers – H4 neuroglioma cells, luminescence, confirmation (AID 1988); assay type: functional, cell-based
[5] = Luminescence Cell-Based Dose Response HTS to Identify Inhibitors of 5'UTR Stem-Loop Driven Prion Protein mRNA Translation in H4 Neuroglioblastoma Cells. [Related pubchem assays: 1827 (Project Summary), 1813 (Primary HTS)]; assay type: functional
[6] = luciferase reporter signal suppression in cells – H4 neuroglioma cells, luminescence, dose response (AID 1990); assay type: functional, cell-based
[7] = molecular target: T1, Aminopeptidase N (Plasmodium falciparum FcB1/Columbia, UniProt O96935); assay: malaria alanyl aminopeptidase activity blockers – biochemical, fluorogenic H-Leu-NHMec substrate, 1536-well (AID 1445); design: species or system Plasmodium falciparum 3D7, 3D7
T1 sequence (O96935 whole entry): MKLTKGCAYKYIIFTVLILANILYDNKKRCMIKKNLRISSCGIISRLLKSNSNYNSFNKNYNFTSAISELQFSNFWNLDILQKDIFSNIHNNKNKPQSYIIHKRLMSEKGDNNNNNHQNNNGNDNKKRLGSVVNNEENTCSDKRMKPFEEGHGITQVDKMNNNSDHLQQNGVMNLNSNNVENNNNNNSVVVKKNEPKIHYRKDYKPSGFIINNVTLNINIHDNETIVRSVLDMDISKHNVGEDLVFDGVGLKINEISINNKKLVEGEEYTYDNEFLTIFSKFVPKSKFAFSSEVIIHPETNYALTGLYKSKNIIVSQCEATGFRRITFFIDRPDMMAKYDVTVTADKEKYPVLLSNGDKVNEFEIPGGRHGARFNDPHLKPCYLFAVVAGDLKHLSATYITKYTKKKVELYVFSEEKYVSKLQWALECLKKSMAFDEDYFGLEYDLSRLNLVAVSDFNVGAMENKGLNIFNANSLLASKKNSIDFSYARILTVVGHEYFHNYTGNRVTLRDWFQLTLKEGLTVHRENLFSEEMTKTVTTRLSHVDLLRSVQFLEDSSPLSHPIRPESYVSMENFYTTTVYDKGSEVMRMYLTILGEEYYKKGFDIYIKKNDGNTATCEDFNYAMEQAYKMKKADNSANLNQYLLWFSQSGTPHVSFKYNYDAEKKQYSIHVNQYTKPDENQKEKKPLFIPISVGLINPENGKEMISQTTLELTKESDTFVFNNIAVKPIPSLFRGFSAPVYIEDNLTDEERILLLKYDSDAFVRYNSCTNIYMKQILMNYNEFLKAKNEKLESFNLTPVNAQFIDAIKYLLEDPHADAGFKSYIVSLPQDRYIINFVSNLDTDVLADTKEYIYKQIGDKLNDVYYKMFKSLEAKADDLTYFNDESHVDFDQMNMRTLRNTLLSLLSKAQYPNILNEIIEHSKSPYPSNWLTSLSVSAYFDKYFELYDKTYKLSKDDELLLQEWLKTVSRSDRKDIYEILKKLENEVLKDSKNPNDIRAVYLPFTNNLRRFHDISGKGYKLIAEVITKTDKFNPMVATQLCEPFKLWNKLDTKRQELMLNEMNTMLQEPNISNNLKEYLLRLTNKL

[8] = molecular target: T2, Protein RecA (Mycobacterium tuberculosis, UniProt P9WHJ3); assay: Fluorescence Cell-Free Homogeneous Dose Retest to Identify Inhibitors of RecA-Intein Splicing Activity. [Related pubchem assays (depositor defined):AID2097, AID2223, AID489010, AID492950]; assay type: functional
T2 sequence (P9WHJ3 whole entry): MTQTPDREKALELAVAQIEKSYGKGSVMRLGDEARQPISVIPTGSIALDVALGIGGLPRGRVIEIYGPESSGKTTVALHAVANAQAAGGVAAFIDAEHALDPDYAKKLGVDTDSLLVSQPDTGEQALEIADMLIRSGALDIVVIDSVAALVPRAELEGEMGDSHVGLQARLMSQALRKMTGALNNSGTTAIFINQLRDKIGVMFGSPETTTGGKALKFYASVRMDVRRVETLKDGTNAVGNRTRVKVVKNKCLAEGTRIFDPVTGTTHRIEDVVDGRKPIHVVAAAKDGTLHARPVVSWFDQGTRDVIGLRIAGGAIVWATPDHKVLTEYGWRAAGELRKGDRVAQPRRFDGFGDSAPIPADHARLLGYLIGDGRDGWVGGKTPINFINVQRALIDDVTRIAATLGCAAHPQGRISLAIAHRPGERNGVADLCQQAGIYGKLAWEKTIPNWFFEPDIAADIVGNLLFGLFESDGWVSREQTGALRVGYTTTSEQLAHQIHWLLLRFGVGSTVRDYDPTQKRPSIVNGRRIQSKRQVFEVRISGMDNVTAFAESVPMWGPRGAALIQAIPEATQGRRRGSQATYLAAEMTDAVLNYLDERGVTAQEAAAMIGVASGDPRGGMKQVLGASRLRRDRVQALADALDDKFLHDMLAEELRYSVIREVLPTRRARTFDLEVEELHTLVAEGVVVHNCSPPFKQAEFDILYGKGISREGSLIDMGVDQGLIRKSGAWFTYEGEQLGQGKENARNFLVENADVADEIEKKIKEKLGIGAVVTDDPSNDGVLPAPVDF

[9] = molecular target: T3, Replicative DNA helicase DnaB (Mycobacterium tuberculosis, UniProt P9WMR3); assay: DnaB intein splicing inhibitors, dose response, biochemical, cell-free fluorescence (AID 449749); assay type: functional
T3 sequence (P9WMR3 whole entry): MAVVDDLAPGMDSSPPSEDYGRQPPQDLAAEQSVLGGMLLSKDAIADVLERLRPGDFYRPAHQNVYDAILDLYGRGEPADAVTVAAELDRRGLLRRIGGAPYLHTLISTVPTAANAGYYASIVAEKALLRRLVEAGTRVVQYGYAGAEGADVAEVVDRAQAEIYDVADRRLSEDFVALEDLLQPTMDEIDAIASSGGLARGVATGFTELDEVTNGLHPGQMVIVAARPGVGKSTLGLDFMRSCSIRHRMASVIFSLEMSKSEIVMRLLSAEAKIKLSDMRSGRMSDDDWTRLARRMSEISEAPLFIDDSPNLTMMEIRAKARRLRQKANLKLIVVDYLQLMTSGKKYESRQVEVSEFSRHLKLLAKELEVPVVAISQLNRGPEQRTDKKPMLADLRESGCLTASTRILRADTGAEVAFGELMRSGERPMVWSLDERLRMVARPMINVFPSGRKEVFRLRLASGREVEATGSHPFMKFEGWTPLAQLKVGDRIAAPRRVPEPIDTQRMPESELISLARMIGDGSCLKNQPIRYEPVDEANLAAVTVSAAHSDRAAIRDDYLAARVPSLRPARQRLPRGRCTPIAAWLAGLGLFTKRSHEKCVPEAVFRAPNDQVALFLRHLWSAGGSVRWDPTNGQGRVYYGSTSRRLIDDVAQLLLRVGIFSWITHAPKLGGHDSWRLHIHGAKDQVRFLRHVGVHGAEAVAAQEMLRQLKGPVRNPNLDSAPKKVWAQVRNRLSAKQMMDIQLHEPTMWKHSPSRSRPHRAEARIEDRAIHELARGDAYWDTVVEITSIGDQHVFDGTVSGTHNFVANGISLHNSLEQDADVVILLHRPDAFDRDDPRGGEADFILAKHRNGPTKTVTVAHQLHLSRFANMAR

[10] = molecular target: Large T antigen (Simian virus 40, UniProt P03070); assay type: functional, Betapolyomavirus macacae;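 also: Confirmatory-stage PubChem screen for compounds that inhibit SV40 T antigen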
Large T antigen, sequence (P03070 whole entry): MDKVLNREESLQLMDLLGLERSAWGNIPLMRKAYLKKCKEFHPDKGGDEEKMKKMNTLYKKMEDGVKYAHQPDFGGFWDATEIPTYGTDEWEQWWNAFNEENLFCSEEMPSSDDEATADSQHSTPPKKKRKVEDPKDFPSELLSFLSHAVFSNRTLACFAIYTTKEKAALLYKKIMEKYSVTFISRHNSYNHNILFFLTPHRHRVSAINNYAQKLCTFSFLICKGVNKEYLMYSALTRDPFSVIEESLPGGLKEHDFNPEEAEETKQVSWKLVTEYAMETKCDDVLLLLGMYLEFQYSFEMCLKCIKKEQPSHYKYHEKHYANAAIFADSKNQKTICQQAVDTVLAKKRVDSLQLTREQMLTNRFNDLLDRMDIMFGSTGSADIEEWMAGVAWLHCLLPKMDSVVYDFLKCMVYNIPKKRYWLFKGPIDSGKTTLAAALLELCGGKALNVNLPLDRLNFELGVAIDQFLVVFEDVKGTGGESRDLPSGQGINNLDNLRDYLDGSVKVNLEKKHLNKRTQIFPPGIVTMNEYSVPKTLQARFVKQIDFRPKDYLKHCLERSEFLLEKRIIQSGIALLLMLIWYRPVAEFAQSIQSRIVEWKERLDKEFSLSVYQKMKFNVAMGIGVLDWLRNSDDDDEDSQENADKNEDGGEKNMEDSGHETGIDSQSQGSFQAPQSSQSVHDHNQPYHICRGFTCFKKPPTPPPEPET

[11] = viability of PTEN-deleted HCT116 cells – cell-based, HCT116 PTEN knockout, dose response (AID 1047); assay type: functional;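 also: HCT116 colon tumor cells with PTEN knocked out; cells exposed to compound for 60 hours before readout; potency for loss of cell viability measured by luminescence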
[12] = HEK-293T cell viability reduction – luminescence, B-cell screen hits, cytotoxicity control for BCR NF-kB inhibitor project, dose response (AID 489021); assay type: functional, cell-based;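 also: HEK-293T cells carrying an NF-kB luciferase reporter; cells exposed to compound for about 14 hours before viability readout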
[13] = viability of HCT116 lacking mutant beta-catenin – cell-based, human colon tumor, dose response (AID 1045); assay type: functional;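 also: HCT116 colon tumor cells with beta catenin knocked out; cells exposed to compound for 60 hours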
[14] = molecular target: T4, Mucolipin-3 (Homo sapiens, UniProt Q8TDD5); assay: Dose response cell-based high-throughput screening assay for agonists of the transient receptor potential channel ML3 (TRPML3). [Related pubchem assays: 1526, 1424, 1448 ]; assay type: functional
T4 sequence (Q8TDD5 whole entry): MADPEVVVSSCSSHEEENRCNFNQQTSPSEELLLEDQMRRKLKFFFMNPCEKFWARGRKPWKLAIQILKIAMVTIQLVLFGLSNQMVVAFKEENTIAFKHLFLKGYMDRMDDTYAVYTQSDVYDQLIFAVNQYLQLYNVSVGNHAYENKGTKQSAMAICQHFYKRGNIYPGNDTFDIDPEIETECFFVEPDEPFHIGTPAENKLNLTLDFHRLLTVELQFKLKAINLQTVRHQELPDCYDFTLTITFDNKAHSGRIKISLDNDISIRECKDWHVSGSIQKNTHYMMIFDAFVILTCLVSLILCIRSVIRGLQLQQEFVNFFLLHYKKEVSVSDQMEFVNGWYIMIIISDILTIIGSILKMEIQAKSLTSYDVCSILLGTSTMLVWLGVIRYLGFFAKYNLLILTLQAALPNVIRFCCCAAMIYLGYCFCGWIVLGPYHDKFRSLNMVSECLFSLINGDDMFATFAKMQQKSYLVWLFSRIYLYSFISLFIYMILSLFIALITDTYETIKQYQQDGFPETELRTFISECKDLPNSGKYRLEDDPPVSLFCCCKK

[15] = molecular target: T5, Calpain-2 catalytic subunit (Sus scrofa, UniProt P43367); assay: m-calpain protease blockers, concentration series – biochemical, fluorogenic peptide substrate, dose response (AID 1420); assay type: functional
T5 sequence (P43367 whole entry): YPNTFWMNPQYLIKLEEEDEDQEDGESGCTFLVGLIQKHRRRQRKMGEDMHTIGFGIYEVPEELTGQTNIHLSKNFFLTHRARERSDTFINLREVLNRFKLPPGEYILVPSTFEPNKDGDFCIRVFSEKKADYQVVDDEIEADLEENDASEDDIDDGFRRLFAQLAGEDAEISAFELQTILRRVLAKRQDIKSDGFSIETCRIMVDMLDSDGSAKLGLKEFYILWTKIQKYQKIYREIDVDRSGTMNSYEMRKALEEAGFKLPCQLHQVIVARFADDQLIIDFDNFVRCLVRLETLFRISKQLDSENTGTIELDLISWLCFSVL

[16] = molecular target: Ion channel NompC (Danio rerio, UniProt Q7T1G6); assay: Fluorescence counterscreen assay for TRPML3 agonists: dose response cell-based high-throughput screening assay to identify agonists of the transient receptor potential channel N1 (TRPN1). [Related pubchem assays: 1526, 1424, 1448 ]; assay type: functional
Ion channel NompC, sequence (Q7T1G6 whole entry): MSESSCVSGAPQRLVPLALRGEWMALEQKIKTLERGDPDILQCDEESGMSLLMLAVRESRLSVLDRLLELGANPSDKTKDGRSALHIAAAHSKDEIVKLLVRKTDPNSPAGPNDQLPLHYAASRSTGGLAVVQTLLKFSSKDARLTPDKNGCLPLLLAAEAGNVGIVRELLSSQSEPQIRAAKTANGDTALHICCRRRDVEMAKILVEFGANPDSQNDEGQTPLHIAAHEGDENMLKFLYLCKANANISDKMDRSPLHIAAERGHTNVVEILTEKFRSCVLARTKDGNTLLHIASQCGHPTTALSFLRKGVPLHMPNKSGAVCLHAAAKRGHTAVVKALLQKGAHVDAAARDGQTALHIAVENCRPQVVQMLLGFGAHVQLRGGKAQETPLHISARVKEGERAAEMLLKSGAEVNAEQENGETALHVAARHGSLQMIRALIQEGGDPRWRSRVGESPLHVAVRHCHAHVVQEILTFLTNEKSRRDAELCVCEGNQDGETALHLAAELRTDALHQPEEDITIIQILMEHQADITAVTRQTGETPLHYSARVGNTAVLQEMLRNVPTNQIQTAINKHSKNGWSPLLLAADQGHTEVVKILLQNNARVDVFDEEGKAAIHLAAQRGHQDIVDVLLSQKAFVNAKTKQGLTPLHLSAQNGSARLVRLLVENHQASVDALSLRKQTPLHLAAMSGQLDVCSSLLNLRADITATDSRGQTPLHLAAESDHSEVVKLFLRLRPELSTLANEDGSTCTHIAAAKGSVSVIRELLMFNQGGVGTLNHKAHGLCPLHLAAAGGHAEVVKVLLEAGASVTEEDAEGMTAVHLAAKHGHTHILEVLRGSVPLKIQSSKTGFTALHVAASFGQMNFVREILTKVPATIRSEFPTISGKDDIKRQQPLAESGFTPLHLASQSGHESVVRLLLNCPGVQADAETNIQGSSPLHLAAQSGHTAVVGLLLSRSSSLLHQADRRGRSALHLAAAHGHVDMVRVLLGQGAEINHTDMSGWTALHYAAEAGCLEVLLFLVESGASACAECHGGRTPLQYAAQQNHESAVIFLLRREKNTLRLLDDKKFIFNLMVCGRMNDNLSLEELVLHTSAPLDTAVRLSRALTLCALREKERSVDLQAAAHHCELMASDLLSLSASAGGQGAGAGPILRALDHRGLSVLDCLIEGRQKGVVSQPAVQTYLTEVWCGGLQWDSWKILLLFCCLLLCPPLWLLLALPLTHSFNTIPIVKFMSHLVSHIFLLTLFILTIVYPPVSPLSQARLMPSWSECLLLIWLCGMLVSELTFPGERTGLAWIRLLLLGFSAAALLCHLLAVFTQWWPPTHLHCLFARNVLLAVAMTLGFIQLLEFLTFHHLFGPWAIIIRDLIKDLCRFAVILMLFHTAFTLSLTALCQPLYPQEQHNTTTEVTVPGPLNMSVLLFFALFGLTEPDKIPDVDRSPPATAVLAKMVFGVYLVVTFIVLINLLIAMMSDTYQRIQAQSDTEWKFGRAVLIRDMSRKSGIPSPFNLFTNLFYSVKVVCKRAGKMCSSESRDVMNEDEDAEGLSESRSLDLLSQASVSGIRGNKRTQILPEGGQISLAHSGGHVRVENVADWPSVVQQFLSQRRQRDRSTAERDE

[17] = molecular target: Cytochrome P450 2D6 (Homo sapiens, UniProt P10635); assay: qHTS Assay for Inhibitors and Substrates of Cytochrome P450 2D6. [Related pubchem assays: 410 ]; assay type: ADME; conditions: read-out: Potency
Cytochrome P450 2D6, sequence (P10635 whole entry): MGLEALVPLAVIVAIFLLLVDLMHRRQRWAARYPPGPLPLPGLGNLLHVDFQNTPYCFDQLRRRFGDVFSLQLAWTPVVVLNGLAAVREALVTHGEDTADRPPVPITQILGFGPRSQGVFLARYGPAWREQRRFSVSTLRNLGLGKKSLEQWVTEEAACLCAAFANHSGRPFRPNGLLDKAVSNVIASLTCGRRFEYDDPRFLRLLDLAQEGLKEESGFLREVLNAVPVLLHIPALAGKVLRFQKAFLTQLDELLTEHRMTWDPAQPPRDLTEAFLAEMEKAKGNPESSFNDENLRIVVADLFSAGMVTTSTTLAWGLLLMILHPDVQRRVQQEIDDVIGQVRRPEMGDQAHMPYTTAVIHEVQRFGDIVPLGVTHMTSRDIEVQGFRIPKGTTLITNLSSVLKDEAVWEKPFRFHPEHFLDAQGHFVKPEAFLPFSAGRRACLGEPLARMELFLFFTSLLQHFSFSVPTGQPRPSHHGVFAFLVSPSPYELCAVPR

[18] = molecular target: Cytochrome P450 3A4 (Homo sapiens, UniProt P08684); conditions: Potency;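 also: confirmatory qHTS run detecting inhibitors and substrates of CYP3A4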
Cytochrome P450 3A4, sequence (P08684 whole entry): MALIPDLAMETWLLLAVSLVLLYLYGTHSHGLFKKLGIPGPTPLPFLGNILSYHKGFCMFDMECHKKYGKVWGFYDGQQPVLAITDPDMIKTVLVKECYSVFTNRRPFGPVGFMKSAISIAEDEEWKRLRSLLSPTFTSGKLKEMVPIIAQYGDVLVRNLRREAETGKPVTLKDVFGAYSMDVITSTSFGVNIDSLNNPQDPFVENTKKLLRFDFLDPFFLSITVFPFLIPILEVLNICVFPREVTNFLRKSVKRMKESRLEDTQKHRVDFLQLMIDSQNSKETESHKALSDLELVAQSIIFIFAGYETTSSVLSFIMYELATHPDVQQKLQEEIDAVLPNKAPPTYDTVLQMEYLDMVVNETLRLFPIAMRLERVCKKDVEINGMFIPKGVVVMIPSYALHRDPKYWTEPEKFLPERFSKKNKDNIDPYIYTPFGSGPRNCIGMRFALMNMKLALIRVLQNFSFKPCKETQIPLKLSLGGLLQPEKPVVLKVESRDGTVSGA

## O=C1c2n[nH]c(-c3ccccc3O)c2C(c2ccc(F)cc2)N1CC1CCCO1 (stereo unspecified)
[1]
  EC50: > 50 µM (active)

## COc1ccccc1C(=O)Nc1nnc(-c2ccc(Cl)cc2)o1
[1]
  EC50: > 50 µM (active)

## Cc1cccc(OCCSc2nnc(-c3ccoc3C)n2C)c1
[1]
  EC50: > 50 µM (active)

## OCCN1CCN(c2nc(-c3ccccc3)nc3c2oc2ccccc23)CC1
[2]
  EC50: 10.2 µM (active)
[3]
  EC50: 7.2 µM (active)

## CCOc1cc(/C=C(/C#N)C(=O)Nc2ccc(O)cc2)cc(Br)c1O
[4]
  EC50: 7.65 µM (active)
[5]
  EC50: 9.51 µM (active)
[6]
  EC50: 9.71 µM (inconclusive)
[7]
  IC50: 78.7 µM (active)
[8]
  EC50: 3.28 µM (active)
[9]
  AC50: > 380 µM (inactive)

## COc1cc(/C=C2\SC(=S)N(C(C(=O)O)c3ccccc3)C2=O)ccc1O (stereo unspecified)
[10]
  IC50: 11.6 µM (active)
[7]
  IC50: 38.1 µM (active)

## CC1=CC(C)(C)Nc2ccc(OC(=O)c3ccco3)cc21
[2]
  EC50: 6.79 µM (active)
[3]
  EC50: 7.05 µM (active)
[11]
  EC50: 7.39 µM (active)
[12]
  IC50: 44.7 µM (inactive)
[13]
  EC50: 5.59 µM (active)

## COc1ccc(OC)c(C(c2c(O)oc3ccccc3c2=O)c2c(C)n(C)n(-c3ccccc3)c2=O)c1 (stereo unspecified)
[7]
  IC50: 71 µM (active)

## COc1ccc2c(c1)C(C)CC(C)(C)N2C(=O)CSc1nc2ccccc2s1 (stereo unspecified)
[14]
  EC50: 2.63 µM (active)
[15]
  IC50: 3.08 µM (not active)
[16]
  EC50: > 29.9 µM (not active)

## OCC1OC(c2ccc3c(c2)OCO3)C=CC1Oc1ccc(C2CCCC2)cc1 (stereo unspecified)
[17]
  AC50: 3.16 µM (inconclusive)
[18]
  AC50: 2 µM (inconclusive)

## COC(=O)c1sc2nc(-c3ccccc3)nc(N3CCN(C)CC3)c2c1C
[2]
  EC50: > 20 µM (not active)
[3]
  EC50: > 20 µM (not active)

Source: ChEMBL document CHEMBL1201862, “PubChem BioAssay data set” (2004)
